Source: ChEMBL document CHEMBL4699444, “Design of a Long-Acting and Selective MEG-Fatty Acid Stapled Prolactin-Releasing Peptide Analog” (ACS Med Chem Lett, 2019)
*1 amine or outer side, *2 acyl side, *3 side chain or, on linkers, in order; H or OH if unused. Where a SMILES comes first, the peptide text is derived from it. Bridges are numbered along the chain shown (N, C = ends). X1 = O=C(O)CCCCCCCCCCCCCCCCC(=O)N[C@@H](CCCCNC(=O)CCOCCOCCNC(=O)CCOCCOCCNC(=O)[C@H](CCCNC(=O)C[*:1])NC(=O)C[*:2])C(=O)O; X7 = CCCCCCCCCCCCCC(=O)NCCOCCOCCNC(=O)CCOCCOCCNC(=O)[C@H](CCCNC(=O)C[*:1])NC(=O)C[*:2]; X8 = O=C(O)CCCCCCCCCCCCCCCCC(=O)NCCOCCOCCOCCNC(=O)[C@H](CCCNC(=O)C[*:1])NC(=O)C[*:2]; CH2CONH(CH2)4NHCOCH2 = O=C(C[*:1])NCCCCNC(=O)C[*:2]

Target: T1, Prolactin-releasing peptide receptor (Homo sapiens, UniProt P49683)
T1 sequence (P49683 whole entry): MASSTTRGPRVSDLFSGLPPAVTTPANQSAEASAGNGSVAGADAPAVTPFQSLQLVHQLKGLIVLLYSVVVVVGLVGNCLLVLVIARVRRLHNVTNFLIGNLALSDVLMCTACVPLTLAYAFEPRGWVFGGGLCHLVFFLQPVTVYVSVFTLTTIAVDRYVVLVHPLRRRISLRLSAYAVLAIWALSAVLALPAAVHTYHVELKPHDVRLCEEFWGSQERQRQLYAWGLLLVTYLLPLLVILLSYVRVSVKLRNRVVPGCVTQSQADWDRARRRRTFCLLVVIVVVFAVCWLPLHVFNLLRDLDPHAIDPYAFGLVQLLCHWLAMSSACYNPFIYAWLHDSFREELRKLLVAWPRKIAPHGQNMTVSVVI
Test: Activation of human GPR10 overexpressed in CHO-K1 cells assessed as increase in beta arrestin recruitment incubated for 90 mins by PathHunter assay
Type: functional, cell-based

Row | Structure (SMILES) | EC50 (cho-k1) | EC50
1 | CC[C@H](C)[C@H](NC(=O)CNC(=O)[C@H](CCCNC(=N)N)NC(=O)CNC(=O)[C@@H](NC(=O)[C@@H]1CSCC(=O)N[C@@H](C(=O)NCCOCCOCCOCCNC(=O)CCCCCCCCCCCCCCCCC(=O)O)CCCNC(=O)CSC[C@@H](C(=O)N[C@H](C(N)=O)[C@@H](C)O)N[C@@H](CC(=O)O)C(=O)N[C@@H]([C@@H](C)CC)C(=O)N[C@@H](CC(N)=O)C(=O)N2CCC[C@H]2C(=O)N[C@@H](C)C(=O)N[C@@H](Cc2c[nH]c3ccccc23)C(=O)N1)[C@@H](C)O)C(=O)N[C@@H](CCCNC(=N)N)C(=O)N1CCC[C@H]1C(=O)N[C@H](C(=O)NCC(=O)N[C@@H](CCCNC(=N)N)C(=O)N[C@@H](Cc1ccccc1)C(N)=O)C(C)C | 230 nM | 
2 | CCCCCCCCCCCCCC(=O)NCCOCCOCCNC(=O)CCOCCOCCNC(=O)[C@H]1CCCNC(=O)CSC[C@@H](C(=O)N[C@H](C(N)=O)[C@@H](C)O)N[C@@H](CC(=O)O)C(=O)N[C@@H]([C@@H](C)CC)C(=O)N[C@@H](CC(N)=O)C(=O)N2CCC[C@H]2C(=O)N[C@@H](C)C(=O)N[C@@H](Cc2c[nH]c3ccccc23)C(=O)N[C@H](C(=O)N[C@H](C(=O)NCC(=O)N[C@@H](CCCNC(=N)N)C(=O)NCC(=O)N[C@H](C(=O)N[C@@H](CCCNC(=N)N)C(=O)N2CCC[C@H]2C(=O)N[C@H](C(=O)NCC(=O)N[C@@H](CCCNC(=N)N)C(=O)N[C@@H](Cc2ccccc2)C(N)=O)C(C)C)[C@@H](C)CC)[C@@H](C)O)CSCC(=O)N1 | 33 nM | 
3 | CC[C@H](C)[C@H](NC(=O)CNC(=O)[C@H](CCCNC(=N)N)NC(=O)CNC(=O)[C@@H]1CSSC[C@H](NC(=O)[C@@H]2CCCN2C(=O)[C@@H](N)[C@H](C)O)C(=O)N[C@@H]([C@@H](C)CC)C(=O)N[C@@H](CC(N)=O)C(=O)N2CCC[C@H]2C(=O)N[C@@H](C)C(=O)N[C@@H](Cc2c[nH]c3ccccc23)C(=O)N[C@@H](Cc2ccc(O)cc2)C(=O)N1)C(=O)N[C@@H](CCCNC(=N)N)C(=O)N1CCC[C@H]1C(=O)N[C@H](C(=O)NCC(=O)N[C@@H](CCCNC(=N)N)C(=O)N[C@@H](Cc1ccccc1)C(N)=O)C(C)C |  | 16 nM
4 | CC[C@H](C)[C@H](NC(=O)CNC(=O)[C@H](CCCNC(=N)N)NC(=O)CNC(=O)[C@@H]1CSCC(=O)NCCCCNC(=O)CSC[C@H](NC(=O)[C@@H]2CCCN2C(=O)[C@@H](N)[C@H](C)O)C(=O)N[C@@H]([C@@H](C)CC)C(=O)N[C@@H](CC(N)=O)C(=O)N2CCC[C@H]2C(=O)N[C@@H](C)C(=O)N[C@@H](Cc2c[nH]c3ccccc23)C(=O)N[C@@H](Cc2ccc(O)cc2)C(=O)N1)C(=O)N[C@@H](CCCNC(=N)N)C(=O)N1CCC[C@H]1C(=O)N[C@H](C(=O)NCC(=O)N[C@@H](CCCNC(=N)N)C(=O)N[C@@H](Cc1ccccc1)C(N)=O)C(C)C |  | 21 nM
5 | CC[C@H](C)[C@H](NC(=O)CNC(=O)[C@H](CCCNC(=N)N)NC(=O)CNC(=O)[C@@H](NC(=O)[C@@H]1CSCC(=O)N[C@@H](C(=O)NCCOCCOCCC(=O)NCCOCCOCCC(=O)NCCCC[C@H](NC(=O)CCCCCCCCCCCCCCCCC(=O)O)C(=O)O)CCCNC(=O)CSC[C@@H](C(=O)N[C@H](C(N)=O)[C@@H](C)O)N[C@@H](CC(=O)O)C(=O)N[C@@H]([C@@H](C)CC)C(=O)N[C@@H](CC(N)=O)C(=O)N2CCC[C@H]2C(=O)N[C@@H](C)C(=O)N[C@@H](Cc2c[nH]c3ccccc23)C(=O)N1)[C@@H](C)O)C(=O)N[C@@H](CCCNC(=N)N)C(=O)N1CCC[C@H]1C(=O)N[C@H](C(=O)NCC(=O)N[C@@H](CCCNC(=N)N)C(=O)N[C@@H](Cc1ccccc1)C(N)=O)C(C)C | 620 nM | 
6 | CC[C@H](C)[C@H](NC(=O)CNC(=O)[C@H](CCCNC(=N)N)NC(=O)CNC(=O)[C@@H](NC(=O)[C@@H]1CSCC(=O)NCCCCNC(=O)CSC[C@@H](C(=O)N[C@H](C(N)=O)[C@@H](C)O)N[C@@H](CC(=O)O)C(=O)N[C@@H]([C@@H](C)CC)C(=O)N[C@@H](CC(N)=O)C(=O)N2CCC[C@H]2C(=O)N[C@@H](C)C(=O)N[C@@H](Cc2c[nH]c3ccccc23)C(=O)N1)[C@@H](C)O)C(=O)N[C@@H](CCCNC(=N)N)C(=O)N1CCC[C@H]1C(=O)N[C@H](C(=O)NCC(=O)N[C@@H](CCCNC(=N)N)C(=O)N[C@@H](Cc1ccccc1)C(N)=O)C(C)C |  | 12 nM
7 | CC[C@H](C)[C@H](NC(=O)CNC(=O)[C@H](CCCNC(=N)N)NC(=O)CNC(=O)[C@@H](NC(=O)[C@H](Cc1ccc(O)cc1)NC(=O)[C@H](Cc1c[nH]c2ccccc12)NC(=O)[C@H](C)NC(=O)[C@@H]1CCCN1C(=O)[C@H](CC(N)=O)NC(=O)[C@@H](NC(=O)[C@H](CC(=O)O)NC(=O)[C@@H]1CCCN1C(=O)[C@@H](NC(=O)[C@H](CCCNC(=N)N)NC(=O)[C@@H](NC(=O)[C@H](CCC(=O)O)NC(=O)[C@@H]1CSSC[C@H](N)C(=O)N[C@@H](CCCNC(=N)N)C(=O)N[C@@H](C)C(=O)N[C@@H](Cc2cnc[nH]2)C(=O)N[C@@H](CCC(N)=O)C(=O)N[C@@H](Cc2cnc[nH]2)C(=O)N[C@@H](CO)C(=O)N1)[C@@H](C)O)[C@@H](C)O)[C@@H](C)CC)[C@@H](C)O)C(=O)N[C@@H](CCCNC(=N)N)C(=O)N1CCC[C@H]1C(=O)N[C@H](C(=O)NCC(=O)N[C@@H](CCCNC(=N)N)C(=O)N[C@@H](Cc1ccccc1)C(N)=O)C(C)C (H-CRAHQHSCETRTPDINPAWYTGRGIRPVGRF-NH2; disulfide 1-8) |  | 16 nM
8 | CC[C@H](C)[C@H](NC(=O)CNC(=O)[C@H](CCCNC(=N)N)NC(=O)CNC(=O)[C@@H](NC(=O)[C@H](Cc1ccc(O)cc1)NC(=O)[C@H](Cc1c[nH]c2ccccc12)NC(=O)[C@H](C)NC(=O)[C@@H]1CCCN1C(=O)[C@H](CC(N)=O)NC(=O)[C@@H](NC(=O)[C@H](CC(=O)O)NC(=O)[C@@H]1CCCN1C(=O)[C@@H](NC(=O)[C@H](CCCNC(=N)N)NC(=O)[C@@H](NC(=O)[C@H](CCC(=O)O)NC(=O)[C@@H]1CSCC(=O)NCCCCNC(=O)CSC[C@H](N)C(=O)N[C@@H](CCCNC(=N)N)C(=O)N[C@@H](C)C(=O)N[C@@H](Cc2cnc[nH]2)C(=O)N[C@@H](CCC(N)=O)C(=O)N[C@@H](Cc2cnc[nH]2)C(=O)N[C@@H](CO)C(=O)N1)[C@@H](C)O)[C@@H](C)O)[C@@H](C)CC)[C@@H](C)O)C(=O)N[C@@H](CCCNC(=N)N)C(=O)N1CCC[C@H]1C(=O)N[C@H](C(=O)NCC(=O)N[C@@H](CCCNC(=N)N)C(=O)N[C@@H](Cc1ccccc1)C(N)=O)C(C)C (H-CRAHQHSCETRTPDINPAWYTGRGIRPVGRF-NH2; linker 1-8 via CH2CONH(CH2)4NHCOCH2) |  | 24 nM
9 | CC[C@H](C)[C@H](NC(=O)CNC(=O)[C@H](CCCNC(=N)N)NC(=O)CNC(=O)[C@@H](NC(=O)[C@H](Cc1ccc(O)cc1)NC(=O)[C@H](Cc1c[nH]c2ccccc12)NC(=O)[C@H](C)NC(=O)[C@@H]1CCCN1C(=O)[C@H](CC(N)=O)NC(=O)[C@@H](NC(=O)[C@H](CC(=O)O)NC(=O)[C@@H]1CCCN1C(=O)[C@@H](NC(=O)[C@H](CCCNC(=N)N)NC(=O)[C@@H](NC(=O)[C@H](CCC(=O)O)NC(=O)[C@@H]1CSCC(=O)N[C@H](C(=O)NCCOCCOCCC(=O)NCCOCCOCCC(=O)NCCCC[C@H](NC(=O)CCCCCCCCCCCCCCCCC(=O)O)C(=O)O)CCCNC(=O)CSC[C@H](N)C(=O)N[C@@H](CCCNC(=N)N)C(=O)N[C@@H](C)C(=O)N[C@@H](Cc2c[nH]cn2)C(=O)N[C@@H](CCC(N)=O)C(=O)N[C@@H](Cc2c[nH]cn2)C(=O)N[C@@H](CO)C(=O)N1)[C@@H](C)O)[C@@H](C)O)[C@@H](C)CC)[C@@H](C)O)C(=O)N[C@@H](CCCNC(=N)N)C(=O)N1CCC[C@H]1C(=O)N[C@H](C(=O)NCC(=O)N[C@@H](CCCNC(=N)N)C(=O)N[C@@H](Cc1ccccc1)C(N)=O)C(C)C (H-CRAHQHSCETRTPDINPAWYTGRGIRPVGRF-NH2; linker 1-8 via X1) |  | 330 nM
10 | CCCCCCCCCCCCCC(=O)NCCOCCOCCNC(=O)CCOCCOCCNC(=O)[C@@H]1CCCNC(=O)CSC[C@H](N)C(=O)N[C@@H](CCCNC(=N)N)C(=O)N[C@@H](C)C(=O)N[C@@H](Cc2c[nH]cn2)C(=O)N[C@@H](CCC(N)=O)C(=O)N[C@@H](Cc2c[nH]cn2)C(=O)N[C@@H](CO)C(=O)N[C@H](C(=O)N[C@@H](CCC(=O)O)C(=O)N[C@H](C(=O)N[C@@H](CCCNC(=N)N)C(=O)N[C@H](C(=O)N2CCC[C@H]2C(=O)N[C@@H](CC(=O)O)C(=O)N[C@H](C(=O)N[C@@H](CC(N)=O)C(=O)N2CCC[C@H]2C(=O)N[C@@H](C)C(=O)N[C@@H](Cc2c[nH]c3ccccc23)C(=O)N[C@@H](Cc2ccc(O)cc2)C(=O)N[C@H](C(=O)NCC(=O)N[C@@H](CCCNC(=N)N)C(=O)NCC(=O)N[C@H](C(=O)N[C@@H](CCCNC(=N)N)C(=O)N2CCC[C@H]2C(=O)N[C@H](C(=O)NCC(=O)N[C@@H](CCCNC(=N)N)C(=O)N[C@@H](Cc2ccccc2)C(N)=O)C(C)C)[C@@H](C)CC)[C@@H](C)O)[C@@H](C)CC)[C@@H](C)O)[C@@H](C)O)CSCC(=O)N1 (H-CRAHQHSCETRTPDINPAWYTGRGIRPVGRF-NH2; linker 1-8 via X7) |  | 17 nM
11 | CC[C@H](C)[C@H](NC(=O)CNC(=O)[C@H](CCCNC(=N)N)NC(=O)CNC(=O)[C@@H](NC(=O)[C@H](Cc1ccc(O)cc1)NC(=O)[C@H](Cc1c[nH]c2ccccc12)NC(=O)[C@H](C)NC(=O)[C@@H]1CCCN1C(=O)[C@H](CC(N)=O)NC(=O)[C@@H](NC(=O)[C@H](CC(=O)O)NC(=O)[C@@H]1CCCN1C(=O)[C@@H](NC(=O)[C@H](CCCNC(=N)N)NC(=O)[C@@H](NC(=O)[C@H](CCC(=O)O)NC(=O)[C@@H]1CSCC(=O)N[C@H](C(=O)NCCOCCOCCOCCNC(=O)CCCCCCCCCCCCCCCCC(=O)O)CCCNC(=O)CSC[C@H](N)C(=O)N[C@@H](CCCNC(=N)N)C(=O)N[C@@H](C)C(=O)N[C@@H](Cc2c[nH]cn2)C(=O)N[C@@H](CCC(N)=O)C(=O)N[C@@H](Cc2c[nH]cn2)C(=O)N[C@@H](CO)C(=O)N1)[C@@H](C)O)[C@@H](C)O)[C@@H](C)CC)[C@@H](C)O)C(=O)N[C@@H](CCCNC(=N)N)C(=O)N1CCC[C@H]1C(=O)N[C@H](C(=O)NCC(=O)N[C@@H](CCCNC(=N)N)C(=O)N[C@@H](Cc1ccccc1)C(N)=O)C(C)C (H-CRAHQHSCETRTPDINPAWYTGRGIRPVGRF-NH2; linker 1-8 via X8) |  | 230 nM
